In brackets after ≈: the same amount, converted by molar mass.

This note sets out measurements from PubChem BioAssay AID1996.

For the data set the following is noted: buffer; pH 7.4; 200.0 µM.
Turning to `COc1cccc(CNC(=O)COC(=O)c2nn(C)c(=O)c3ccccc23)c1`, the solubility (kinetic) (commonly the concentration staying in solution when a stock, usually in DMSO, is diluted into the medium) was over 57.2 µg/mL.

`CC1=CC2=NC(=O)/C(=C/c3cccn3Cc3ccccc3)C(=N)N2O1` came in with a solubility (kinetic) of 2.7 µg/mL (≈ 8.12 µM).

Regarding `COc1cc2c(cc1OC)C(c1cccc([N+](=O)[O-])c1)NC(=O)C2` (stereo unspecified), the kinetic solubility was 26.1 µg/mL (≈ 79.5 µM).

As to `COC(=O)Nc1ccc(S(=O)(=O)N2CCCC(C(=O)NCC3CCCO3)C2)cc1` (stereo unspecified), the solubility (kinetic) is over 63.8 µg/mL.

On to `CCOc1ccc(N2C(=O)S/C(=C\c3ccc(O)c(OCC)c3)C2=O)cc1`, for which the kinetic solubility is under 0.8 µg/mL.

Compound `CC(=O)c1cccc(NC(=S)NCCc2ccc(Cl)cc2)c1` had a solubility (kinetic) of 4.1 µg/mL (≈ 12.3 µM).

As to `NC1=C(Br)C(=O)c2ccccc2C1=O`, the kinetic solubility turned out to be 37.3 µg/mL (≈ 148 µM). Compared with the last compound, the solubility kinetic is about 9.1-fold higher.

`N/C(=N\c1nc2ccccc2o1)NC(=O)c1ccc([N+](=O)[O-])cc1` had a solubility (kinetic) of under 0.1 µg/mL.

For the compound `OC(CCN1CCCCC1)c1ccc(-c2ccccc2)cc1` (stereo unspecified), the solubility (kinetic) is over 44.3 µg/mL.

In turn, `COc1ccc(NC(=S)NCCN2CCC(C)CC2)cc1` returned a kinetic solubility of over 46.1 µg/mL.

Turning to `CC(C)C(=O)Nc1ccc(Oc2ccc3c(c2)C(=O)NC3=O)cc1`, the solubility (kinetic) is under 0.3 µg/mL.

In turn, `O=C(CCSCc1ccccc1F)NCc1ccc(F)cc1` displayed a kinetic solubility of 32.8 µg/mL (≈ 102 µM).

As for `CC(=O)Nc1ccc(C(=O)COC(=O)c2cc(C)oc2C)c(F)c1`, the solubility (kinetic) was determined as 7.8 µg/mL (≈ 23.4 µM).

With `CCCc1nc2oc3ccccc3c(=O)c2c(=O)n1-c1ccccc1`, the kinetic solubility was determined as 37.2 µg/mL (≈ 112 µM).

In turn, `C=CCNc1nc(-c2ccc3c(c2)OCCO3)cs1` showed a solubility (kinetic) of 16.3 µg/mL (≈ 59.4 µM).

With `COc1ccc(NC(=O)CN2C(=O)NC3(CCCC3)C2=O)cc1`, the solubility (kinetic) is 40.1 µg/mL (≈ 126 µM).

`COc1ccc(C(=O)CCC(=O)NCCc2ccccc2F)cc1` gave a kinetic solubility of 16.9 µg/mL (≈ 51.3 µM). This solubility kinetic is about 2.4-fold lower than that of the compound before.

With `CCCCCCCc1c(C#N)c(N)[nH]c(=S)c1C#N`, the kinetic solubility amounted to 31.5 µg/mL (≈ 115 µM).

Regarding `O=[N+]([O-])c1cccc(S(=O)(=O)NCCc2cccs2)c1`, the solubility (kinetic) was over 46.9 µg/mL.

The compound `C=C(C)n1c(=O)n(Cc2ccc(C)cc2)c2ccccc21` had a kinetic solubility of 16.3 µg/mL (≈ 58.6 µM).

`Cc1ccc(C)c(C(=O)CSc2nc(N)cc(=O)[nH]2)c1` displayed a solubility (kinetic) of 19.2 µg/mL (≈ 66.4 µM). This solubility kinetic and that of the compound before are within 1.5-fold of each other.

With `Cc1ccccc1-n1nc2c(c1NC(=O)C(C)(C)C)CS(=O)(=O)C2`, the kinetic solubility was over 52.1 µg/mL.

For `CN(CC(=O)O)S(=O)(=O)c1ccc2oc3ccccc3c2c1`, the kinetic solubility was 40.1 µg/mL (≈ 126 µM).

In turn, `Nc1cccc2c1C(=O)N(CCOc1ccc(F)cc1)C2=O` returned a solubility (kinetic) of 8.4 µg/mL (≈ 28 µM).

`N#Cc1ccc(CC(C(=O)O)N2Cc3ccccc3C2=O)cc1` (stereo unspecified) yielded a solubility (kinetic) of over 45.9 µg/mL.

As for `Cc1cc(Cl)ccc1OCCCC(=O)NCCCn1ccnc1`, the kinetic solubility is over 50.4 µg/mL.

The compound `NS(=O)(=O)c1ccc(CCNC(=O)COC(=O)/C=C/c2cc(Br)ccc2F)cc1` registered a solubility (kinetic) of 30.2 µg/mL (≈ 62.2 µM).

Regarding `CC(C)CCC1(C)NC(=O)N(CC(=O)c2ccc[nH]2)C1=O` (stereo unspecified), the kinetic solubility amounted to 36.1 µg/mL (≈ 124 µM).

`CN1CCN(C(=S)C(=O)Nc2ccccc2)CC1` came in with a solubility (kinetic) of 38.2 µg/mL (≈ 145 µM).

Compound `O=C(NCc1ccco1)c1cccc(Br)c1` returned a solubility (kinetic) of 39 µg/mL (≈ 139 µM). The solubility kinetic values of the last two compounds are within 1.5-fold of each other.

`CC(=O)c1c(C)nc(Nc2nc(C)c3cc(C)ccc3n2)nc1C` showed a solubility (kinetic) of over 48.2 µg/mL.

In the case of `CCOC(=O)c1cc(C(=O)NC(C)c2ccccc2)c(C)[nH]c1=O` (stereo unspecified), the solubility (kinetic) amounted to 2.7 µg/mL (≈ 8.22 µM).

Regarding `N#Cc1c(N)nc2c(c1-c1ccc(F)cc1)c(=O)nc1sccn12`, the solubility (kinetic) was 5.7 µg/mL (≈ 16.9 µM). Compared with the last compound, the solubility kinetic is about 2.1-fold higher.

In turn, `O=C1CCC(C(=O)OCC(=O)Nc2cc(Cl)ccc2F)=NN1` displayed a solubility (kinetic) of over 49.2 µg/mL.

Regarding `C=C(c1ccccc1Cl)[n+]1ccccc1.F[B-](F)(F)F`, the solubility (kinetic) was over 45.5 µg/mL.

On to `O=C(O)C1CCN(C(=O)c2csc(-c3ccc4c(c3)CCO4)n2)CC1`, for which the kinetic solubility is over 53.8 µg/mL.

`CCOc1ccc(CC(=O)NCCc2cnc[nH]2)cc1` gave a kinetic solubility of over 41 µg/mL.

`CCn1c(=O)c2cc(C(=O)NCCC(C)C)sc2c2ccccc21` gave a kinetic solubility of under 0.4 µg/mL.

As to `COc1ccc(Oc2ccc(C(F)(F)F)cc2N)cc1`, the kinetic solubility worked out at 5.3 µg/mL (≈ 18.7 µM).

Compound `O=C(COc1ccc(F)c(Cl)c1)Nc1ccc(N2CCOCC2)cc1` registered a kinetic solubility of 5.4 µg/mL (≈ 14.8 µM).

For `O=C(OCc1cc(=O)n2ccsc2n1)c1ccc(O)cc1O`, the solubility (kinetic) was determined as 11.1 µg/mL (≈ 34.9 µM).

For `O=C1N/C(=C/c2cccs2)C(=O)N1Cc1ccc(F)cc1`, the kinetic solubility is under 0.3 µg/mL.

In turn, `CCC(=O)Nc1cc2c3c(c1)CCC(=O)N3CCC2` yielded a kinetic solubility of over 38.7 µg/mL.

Regarding `O=C1c2ccsc2SCCN1Cc1ccc(F)cc1`, the kinetic solubility is 40.5 µg/mL (≈ 138 µM).

`CC(=O)c1ccc(NC(=O)C(C)NCc2ccccc2Cl)cc1` (stereo unspecified): the kinetic solubility was 38.3 µg/mL (≈ 116 µM).

For the compound `O=C(NCC(c1ccco1)N1CCCCC1)c1cccs1` (stereo unspecified), the kinetic solubility is over 45.7 µg/mL.

On to `Cc1ccc(-c2c(C#N)c(N)nc3c2CCCC3)o1`, for which the kinetic solubility is 4.1 µg/mL (≈ 16.2 µM).

`CC(C)c1cc(NCCOCCO)n2c(nc3ccccc32)c1C#N` registered a kinetic solubility of 7.8 µg/mL (≈ 23 µM).

On to `Cc1ccc(C23CC4CC(CC(C(=O)NC(C)C)(C4)C2)C3)cc1`, for which the solubility (kinetic) is under 0.7 µg/mL.

For `O=C(Nc1ccc2oc(-c3ccncc3)nc2c1)c1ccccc1`, the kinetic solubility was under 0.2 µg/mL.

`C=CCNc1nc(N)c([N+](=O)[O-])c(NCCO)n1` registered a kinetic solubility of over 38.1 µg/mL.
